In ChEMBL document CHEMBL1137131, “Synthesis and cytotoxicity of water soluble quaternary salt derivatives of camptothecin” (Bioorg Med Chem Lett, 2004) one finds IC50 data, which are given here for 18 compounds.

Values after ≈ are worked out from the molar mass of the structure shown.

Type in all cases: functional, cell-based
In assay [1] the test system is HCT-8. Put plainly: In vitro cytotoxicity against HCT-8 cell line (human colon cancer) using MTT assay. For orientation: Formazan colour is commonly taken as a measure of viable cells.
The subject of assay [2] is Bel-7402. Put plainly: In vitro cytotoxicity against Bel7402 cell line (human liver cancer) using MTT assay.
Assay [3] relates to KB. Put plainly: In vitro cytotoxicity against KB cell line (human epidermoid carcinoma of the nasopharynx) using MTT assay.

For the compound `CC[C@@]1(O)C(=O)OCc2c1cc1n(c2=O)Cc2cc3c(CN(C)C)c(O)ccc3nc2-1.Cl` [TOPOTECAN HYDROCHLORIDE], the IC50 (as a rule, the concentration at which inhibition is half-maximal) in assay [1] worked out at 0.03 µg/mL; in assay [2], 0.4 µg/mL; in assay [3] it was 0.02 µg/mL.

With `CC[C@@]1(O)C(=O)OCc2c1cc1n(c2=O)Cc2cc3cc(OCCC[n+]4cccc(F)c4)ccc3nc2-1`, the figures for the 50% inhibitory concentration (IC50) in assay [1], in assay [2] and in assay [3] were 2.02 µg/mL, 5 µg/mL and 3.4 µg/mL, respectively.

With `CC[C@@]1(O)C(=O)OCc2c1cc1n(c2=O)Cc2cc3cc(OCC[n+]4cccc(O)c4)ccc3nc2-1`, the IC50 worked out at 0.42 µg/mL in assay [1], 0.47 µg/mL in assay [2] and 0.32 µg/mL in assay [3].

Regarding `CC[C@@]1(O)C(=O)OCc2c1cc1n(c2=O)Cc2cc3cc(OCC[n+]4ccccc4)ccc3nc2-1`, the values for the IC50 in assay [1], in assay [2] and in assay [3] were 0.45 µg/mL, 3.53 µg/mL and 0.33 µg/mL, respectively.

As for `CC[C@@]1(O)C(=O)OCc2c1cc1n(c2=O)Cc2cc3cc(OCC[n+]4cccc(C(=O)O)c4)ccc3nc2-1`, the IC50 in assay [1] worked out at 0.27 µg/mL; in assay [2] it was 5 µg/mL; in assay [3], 0.31 µg/mL.

Take `CC[C@@]1(O)C(=O)OCc2c1cc1n(c2=O)Cc2cc3cc(OCC[n+]4cccc(C)c4)ccc3nc2-1`: the IC50 in assay [1] was determined as 1.42 µg/mL; in assay [2], 0.47 µg/mL; in assay [3], 0.63 µg/mL.

As for `CC[C@@]1(O)C(=O)OCc2c1cc1n(c2=O)Cc2cc3ccccc3nc2-1` [CAMPTOTHECIN], the values for the IC50 in assay [1], in assay [2] and in assay [3] were less than 0.005 µg/mL, 2.72 µg/mL (≈ 7.81 µM) and less than 0.005 µg/mL, respectively.

For the compound `CC[C@@]1(O)C(=O)OCc2c1cc1n(c2=O)Cc2cc3cc(OCCC[n+]4cccc(C(=O)O)c4)ccc3nc2-1`, the IC50 in assay [1] came to 0.33 µg/mL; in assay [2] it was 0.44 µg/mL; in assay [3], 0.32 µg/mL.

With `CC[C@@]1(O)C(=O)OCc2c1cc1n(c2=O)Cc2cc3cc(OCCC[n+]4cccc(C=O)c4)ccc3nc2-1`, the IC50 is 0.17 µg/mL in assay [1], 0.46 µg/mL in assay [2] and 0.27 µg/mL in assay [3].

Consider `CC[C@@]1(O)C(=O)OCc2c1cc1n(c2=O)Cc2cc3cc(OCC[n+]4cccc(C=O)c4)ccc3nc2-1`, for which the IC50 in assay [1] was 0.35 µg/mL; in assay [2], 3.73 µg/mL; in assay [3], 0.34 µg/mL.

Take `CC[C@@]1(O)C(=O)OCc2c1cc1n(c2=O)Cc2cc3cc(OCCC[n+]4cccc(C(C)=O)c4)ccc3nc2-1`: the IC50 stood at 3.15 µg/mL in assay [1], 5 µg/mL in assay [2] and 3.13 µg/mL in assay [3].

Turning to `CC[C@@]1(O)C(=O)OCc2c1cc1n(c2=O)Cc2cc3cc(OCC[n+]4cccc(C(C)=O)c4)ccc3nc2-1`, the values for the IC50 in assay [1], in assay [2] and in assay [3] were 3.01 µg/mL, 5 µg/mL and 3.21 µg/mL, respectively.

`CC[C@@]1(O)C(=O)OCc2c1cc1n(c2=O)Cc2cc3cc(OCC[n+]4cccc(F)c4)ccc3nc2-1`: the IC50 was found to be 0.38 µg/mL in assay [1], 5 µg/mL in assay [2] and 0.33 µg/mL in assay [3].

As to `CC[C@@]1(O)C(=O)OCc2c1cc1n(c2=O)Cc2cc3cc(OCC[n+]4cccc(CO)c4)ccc3nc2-1`, the IC50 in assay [1] turned out to be 3.73 µg/mL; in assay [2], 5 µg/mL; in assay [3], 3.28 µg/mL.

As for `CC[C@@]1(O)C(=O)OCc2c1cc1n(c2=O)Cc2cc3cc(OCCC[n+]4cccc(CO)c4)ccc3nc2-1`, the values for the IC50 in assay [1], in assay [2] and in assay [3] were 0.34 µg/mL, 2.87 µg/mL and 0.31 µg/mL, respectively.

Regarding `CC[C@@]1(O)C(=O)OCc2c1cc1n(c2=O)Cc2cc3cc(OCCC[n+]4cccc(C)c4)ccc3nc2-1`, the figures for the 50% inhibitory concentration (IC50) in assay [1], in assay [2] and in assay [3] were less than 0.005 µg/mL, 0.04 µg/mL and less than 0.005 µg/mL, respectively.

Take `CC[C@@]1(O)C(=O)OCc2c1cc1n(c2=O)Cc2cc3cc(OCCC[n+]4ccccc4)ccc3nc2-1`: the IC50 in assay [1] worked out at 0.03 µg/mL; in assay [2], 0.44 µg/mL; in assay [3], 0.03 µg/mL.

In the case of `CC[C@@]1(O)C(=O)OCc2c1cc1n(c2=O)Cc2cc3cc(OCCC[n+]4cccc(O)c4)ccc3nc2-1`, the values for the IC50 in assay [1], in assay [2] and in assay [3] were 0.03 µg/mL, 3.92 µg/mL and 0.04 µg/mL, respectively.
